Source: patent US20040242641A1, “(1S,5S)-3-(5,6-dichloro-3-pyridinyl)-3,6-diazabicyclo[3.2.0]heptane is an effective analgesic agent” (priority 2003, published 2004)
Like-named read-outs stand apart in the source and are kept apart here.

What was measured:
[1] = molecular target: T1, ganglionic-like nicotinic acetylcholine receptor (nAChR) subtype in IMR-32 human neuroblastoma cells (Homo sapiens, UniProt P30926+P32297); assay: IMR-32 FLIPR assay, intracellular Ca2+ changes (side effect liability); type: cell-based
T1 construct: host or cells: IMR-32 human neuroblastoma cells
Experimental: Cells were plated out at a density of 1×10^6 cells per well on black-walled, clear-bottomed, 96-well plates (Costar, Cambridge, Mass.) and used approximately 72 hours after plating. All plates were coated with polyethylenimine to aid in the adherence of the cells to the plate.
Changes in the intracellular Ca^2+ content of IMR-32 cells were measured using the calcium chelating dye Fluo-4 (Molecular Probes, Eugene, Oreg.) in conjunction with a Fluorescent Imaging Plate Reader (Molecular Devices, Sunnyvale, Calif.). The cell permeant acetoxymethyl (AM) ester form of […] was prepared to a concentration of 1 mM in anhydrous DMSO and 10% pluronic acid. The dye was then diluted to a final concentration of […] in growth media and placed on the cells for 1 hour at 37° C. Black-walled 96-well plates were utilized to reduce light scattering. The unincorporated dye was removed from the cells by excessive washing with the assay buffer (HETES buffer, 20 mM Hepes, 120 mM NaCl, 5 mM KCl, 1 mM MgCl2, 5 mM glucose, […], and 5 mM CaCl2). […] The intensity of the fluorescence was captured by the CCD camera every second for the first minute following the agonist addition with additional readings every 5 seconds for a total time period of 5 minutes. These images were digitally transferred to an interfaced PC and change in fluorescence intensity processed for each well. The exposure setting of the camera was 0.4 sec with an f-stop setting of […].
The IMR-32 FLIPR assay, described herein, measures cation […] that is mediated through the ganglionic-like nicotinic acetylcholine receptor (nAChR) subtype. Agents that facilitate cation […] of the ganglionic nAChR subtype have been linked to side effect liabilty such as cardiovascular pressor effects.

[2] = system: mechanical allodynia in the affected paw of animals that had undergone spinal nerve ligation; assay: Spinal nerve (L5/L6) ligation neuropathic pain model, mechanical allodynia with von Frey filaments; type: in vivo, rat; conditions: for ED50: Rattus norvegicus, read-out: Analgesic Effect ED50
Excerpt: Male Sprague Dawley rats (80-100 g) were purchased from Charles River (Portage, Mich.). Prior to surgery, animals were group-housed and maintained in a temperature regulated environment (lights on between 7:00 a.m. and 8:00 p.m.). Following nerve ligation surgery, animals were group housed. Rats had access to food and water ad libitum.
The L5 and L6 spinal nerves of anesthesized rats were tightly ligated in the manner described previously by S. H. Kim and J. M. Chung, PAIN 50:355 (1992). Briefly, an incision was made on the dorsal portion of the hip and the muscle was blunt dissected to reveal the spinal processes. The L6 transverse process was removed, and the left L5 and L6 spinal nerves were tightly ligated with 5.0 braided silk suture. The wound was cleaned, the membrane sewn with 4.0 dissolvable Vicryl suture and the skin closed with wound clips.
For the assessment of neuropathic pain, mechanical allodynia in the affected paw of animals that had undergone spinal nerve ligation was evaluated using von Frey filaments. As described previously by S. R. Chaplan, F. W. Bach, J. W. Pogrel, J. M. Chung, and T. L. Yaksh, “Quantitative assessment of tactile allodynia in the rat paw” J. Neurosci. Meth., 53:55-63 (1994) two weeks following surgery, rats were acclimated to the testing box that was constructed of plexiglass with a wire mesh floor to allow access to the planter surface of the hindpaws. Using the Dixons Up-Down method, a baseline level of allodynia was determined to have a withdrawal threshold of <4 g of pressure. […] The EC50 was determined to be 1 μmol/kg.

[3] = molecular target: T2, neuronal nicotinic acetylcholine receptors (Rattus norvegicus, UniProt P09483+P12390); assay: [3H]-cytisine binding to neuronal nicotinic acetylcholine receptors, crude synaptic membranes from whole rat brain; conditions: [3H]-CYT 1.25 nM, Cheng and Prusoff correction
T2 construct: crude synaptic membrane preparations from whole rat brain; from tissue; host or cells: whole rat brain, crude synaptic membranes
Experimental: (1S,5S)-3-(5,6-Dichloro-3-pyridinyl)-3,6-diazabicyclo [3.2.0]heptane was subjected to an vitro assay against the nicotinic acetylcholine receptor as described below.
Binding of [^3H]-cytisine ([^3H]-CYT) to neuronal nicotinic acetylcholine receptors was accomplished using crude synaptic membrane preparations from whole rat brain (Pabreza et al., Molecular Pharmacol., 1990, 39:9). Washed membranes were stored at −80° C. prior to use. Frozen aliquots were slowly thawed and resuspended in 20 volumes of buffer (containing: 120 mM NaCl, 5 mM KCl, 2 mM MgCl2, 2 mM CaCl2 and 50 mM Tris-Cl, pH 7.4 @4° C.). After centrifuging at 20,000×g for 15 minutes, the pellets were resuspended in 30 volumes of buffer.
Each test compound was dissolved in water to make 10 mM stock solutions, diluted (1 :100) with buffer (as above), and further taken through seven serial log dilutions to produce test solutions from 10^−5 to 10^−11 M.
Homogenate (containing 125-150 μg protein) was added to triplicate tubes containing the range of concentrations of test compound described above and [^3H]-CYT (1.25 nM) in a final volume of 500 μL. […] The filters are counted in 4 mL of Ecolume® (ICN). Nonspecific binding was determined in the presence of 10 μM (−)-nicotine and values were expressed as a percentage of total binding. […]

[4] = system: scopolamine-induced cognitive deficit; assay: Morris water maze, spatial discrimination version, scopolamine-induced cognitive deficit; type: in vivo, rat; conditions: about 0.001 to about 5 μmol/kg, 30 minutes prior to the test; scopolamine-HBr 0.3 mg/kg i.p.
Experimental: Male, Long-Evans rats, 300-400 g, obtained from Charles River laboratories were used in this study. During two daily habituation sessions, rats are trained to find a visible escape platform in a pool (180 cm diameter and 60 cm high) filled to a depth of 37 cm with water made opaque with powdered milk. Water temperature is maintained at 26° C. On the second day of habituation training, latency to escape measures are obtained in order to assure that animals are assigned to groups without swim speed bias. For spatial discrimination training, two visible platforms, covered in aluminum foil, are present. The platforms remain in the same position (diagonal to each other) through 5 days of training. Only one of the platforms provides escape; the other, made of expanded polystyrene, will not support the animals' weight. Rats receive six trials/day, with start position changed from trial to trial. The number of contacts with the incorrect platform (errors) serves as the dependent variable.
A cognitive deficit, as measured by increased number of errors in the water maze test, is induced by i.p. administration of the muscarinic antagonist scopolamine-HBr (0.3 mg/kg), dosed 15 min prior to each daily discrimination training session (over five days total).

[5] = IMR-32, Table 1, relative to nicotine, read-out: IMR-32 activitiy % efficacy
[6] = Table 1, read-out: IMR-32 activitiy EC50
[7] = intraperitoneally 15 minutes before testing

T1 sequence (P32297 32-505): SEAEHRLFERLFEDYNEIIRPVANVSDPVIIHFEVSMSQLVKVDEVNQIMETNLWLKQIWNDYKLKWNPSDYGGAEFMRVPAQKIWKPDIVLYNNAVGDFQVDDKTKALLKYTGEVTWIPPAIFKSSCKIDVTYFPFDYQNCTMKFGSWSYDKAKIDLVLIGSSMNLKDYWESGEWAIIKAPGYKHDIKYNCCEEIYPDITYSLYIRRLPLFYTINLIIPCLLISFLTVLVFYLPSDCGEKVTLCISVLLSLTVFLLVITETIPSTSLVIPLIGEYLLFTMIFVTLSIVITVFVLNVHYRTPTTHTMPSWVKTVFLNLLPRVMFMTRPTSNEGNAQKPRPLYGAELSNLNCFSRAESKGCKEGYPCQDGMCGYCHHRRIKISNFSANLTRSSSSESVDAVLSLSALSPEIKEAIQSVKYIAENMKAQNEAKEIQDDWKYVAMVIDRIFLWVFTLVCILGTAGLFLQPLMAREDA
T1 sequence (P30926 22-498): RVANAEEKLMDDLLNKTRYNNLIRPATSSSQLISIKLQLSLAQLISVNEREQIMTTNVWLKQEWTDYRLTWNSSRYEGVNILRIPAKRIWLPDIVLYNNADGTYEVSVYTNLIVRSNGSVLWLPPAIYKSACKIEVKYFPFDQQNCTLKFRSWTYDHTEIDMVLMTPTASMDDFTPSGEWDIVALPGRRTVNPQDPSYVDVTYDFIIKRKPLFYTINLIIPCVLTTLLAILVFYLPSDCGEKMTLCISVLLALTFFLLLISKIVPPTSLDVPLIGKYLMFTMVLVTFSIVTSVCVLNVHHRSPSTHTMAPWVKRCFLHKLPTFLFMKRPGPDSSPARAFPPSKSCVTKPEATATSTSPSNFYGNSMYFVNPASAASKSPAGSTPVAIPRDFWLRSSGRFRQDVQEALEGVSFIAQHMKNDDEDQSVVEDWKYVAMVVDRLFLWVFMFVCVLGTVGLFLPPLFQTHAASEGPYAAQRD
T2 sequence (P09483 31-630): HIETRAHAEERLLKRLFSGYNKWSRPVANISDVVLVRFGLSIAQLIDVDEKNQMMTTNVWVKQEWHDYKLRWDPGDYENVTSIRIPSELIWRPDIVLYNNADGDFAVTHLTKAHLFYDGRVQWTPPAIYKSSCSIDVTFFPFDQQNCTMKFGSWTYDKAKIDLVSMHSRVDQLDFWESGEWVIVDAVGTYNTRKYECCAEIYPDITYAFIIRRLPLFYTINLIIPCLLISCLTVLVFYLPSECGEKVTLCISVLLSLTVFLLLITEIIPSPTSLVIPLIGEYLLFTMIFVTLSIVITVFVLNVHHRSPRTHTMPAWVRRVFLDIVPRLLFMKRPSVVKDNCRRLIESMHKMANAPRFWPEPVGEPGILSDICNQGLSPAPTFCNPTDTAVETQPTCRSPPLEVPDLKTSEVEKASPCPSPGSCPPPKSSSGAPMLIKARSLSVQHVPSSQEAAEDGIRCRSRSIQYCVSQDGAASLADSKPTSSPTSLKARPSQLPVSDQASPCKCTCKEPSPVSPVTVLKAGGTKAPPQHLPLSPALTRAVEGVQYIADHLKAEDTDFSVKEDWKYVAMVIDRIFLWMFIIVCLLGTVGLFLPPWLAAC
T2 sequence (P12390 25-500): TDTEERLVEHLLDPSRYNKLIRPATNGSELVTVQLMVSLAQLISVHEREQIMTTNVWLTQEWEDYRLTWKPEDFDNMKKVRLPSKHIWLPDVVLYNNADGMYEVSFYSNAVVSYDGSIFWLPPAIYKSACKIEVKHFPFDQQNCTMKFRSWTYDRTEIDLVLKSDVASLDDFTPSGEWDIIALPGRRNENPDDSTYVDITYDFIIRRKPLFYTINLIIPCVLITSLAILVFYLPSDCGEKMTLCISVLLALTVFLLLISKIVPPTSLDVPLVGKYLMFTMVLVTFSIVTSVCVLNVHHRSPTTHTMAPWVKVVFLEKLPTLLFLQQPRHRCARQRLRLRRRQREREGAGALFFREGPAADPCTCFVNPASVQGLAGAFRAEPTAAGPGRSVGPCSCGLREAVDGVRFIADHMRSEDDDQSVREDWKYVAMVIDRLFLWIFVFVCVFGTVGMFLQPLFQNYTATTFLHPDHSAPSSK

Row | Compound | EC50 [1] | Emax [1, 5] | ED50 [2] | EC50 [1, 6] | further results
1 | COc1cncc(N2C[C@@H]3CN[C@@H]3C2)c1 [(1S,5S)-3-(5-methoxy-3-pyridinyl)-3,6-diazabicyclo[3.2.0]heptane] | 3.8 µM | 147% | > 19 µmol/kg |  | 
2 | Clc1cc(N2C[C@@H]3CN[C@@H]3C2)cnc1Br [(1S,5S)-3-(6-bromo-5-chloro-3-pyridinyl)-3,6-diazabicyclo[3.2.0]heptane] | 1.4 µM | 81% | > 19 µmol/kg |  | 
3 | Cc1cc(N2C[C@@H]3CN[C@@H]3C2)cnc1Cl [(1S,5S)-3-(6-chloro-5-methyl-3-pyridinyl)-3,6-diazabicyclo[3.2.0]heptane] | 3.4 µM | 94% | > 19 µmol/kg |  | 
4 | c1cncc(N2C[C@@H]3CN[C@@H]3C2)c1 [(1S,5S)-3-(3-pyridinyl)-3,6-diazabicyclo[3.2.0]heptane] |  | 100% | 20 µmol/kg | 23.2 µM | 
5 | Clc1ccc(C2CC3CCC2N3)cn1 (stereo not drawn) [epibatidine] |  |  |  |  | Emax ([1]; IMR-32, read-out: maximum efficacy compared to nicotine): 137%
6 | N#Cc1cncc(N2C[C@@H]3CN[C@@H]3C2)c1 [5-[(1S,5S)-3,6-diazabicyclo[3.2.0]hept-3-yl]nicotinonitrile] |  | 85% | > 19 µmol/kg | 19.9 µM | 
7 | Clc1cc(N2C[C@H]3CN[C@H]3C2)cnc1Cl [(1R,5R)-3-(5,6-dichloro-3-pyridinyl)-3,6-diazabicyclo[3.2.0]heptane] |  | 106% |  | 0.078 µM | 
8 | Clc1ccc(N2C[C@@H]3CN[C@@H]3C2)cn1 [(1S,5S)-3-(6-chloro-3-pyridinyl)-3,6-diazabicyclo[3.2.0]heptane] | 1.4 µM | 102% | 11 µmol/kg |  | 
9 | Clc1cc(N2C[C@@H]3CN[C@@H]3C2)cnc1Cl [(1S,5S)-3-(5,6-dichloro-3-pyridinyl)-3,6-diazabicyclo[3.2.0]heptane] |  | 73% |  |  | Emax ([1]; IMR-32, relative to 100 μM nicotine (100%), read-out: maximum efficacy compared to nicotine): 73%; EC50 ([1]; percent maximal intensity relative to 100 μM nicotine, read-out: EC50 (calcium, IMR-32 cells)): 5.5 µM; Ki [3]: 0.0001 µM; ED50 ([2]; Table 1): 1 µmol/kg; ED50 (increase in withdrawal threshold) [2, 7]: 1 µmol/kg; effect on withdrawal threshold [2, 7]: dose-dependent increase in the withdrawal threshold; maximum effect on withdrawal threshold ([2]; intraperitoneally 15 minutes before testing, baseline threshold <4 g): 15 g; effect on scopolamine-induced cognitive deficit in water maze (errors) [4]: reversed the cognitive deficit and normalized the performance of the animals in the water maze
10 | N#Cc1cc(N2C[C@@H]3CN[C@@H]3C2)cnc1Br [2-bromo-5-[(1S,5S)-3,6-diazabicyclo[3.2.0]hept-3-yl]nicotinonitrile] | 1.2 µM | 103% | > 19 µmol/kg |  | 
